This is an account of results in US20140073801A1, “PYRROLIDINE DERIVATIVES AS SELECTIVE GLYCOSIDASE INHIBITORS AND USES THEREOF” (Summit Corporation Plc, priority 2011, published 2014).

For orientation: IC50 means the concentration that gives 50% inhibition. By inhibition is commonly meant the percentage by which the read-out fell short of the control. Low values mean a response near the control, high ones a response far below the control.

Format in all cases: biochemical
In assay [1] the test system is human β-hexosaminidase [human placenta] (HexA/B). As to the kind of experiment: Determination of IC50 values for inhibition of human β-hexosaminidase. To be noted: ratio. The method in brief:
(§1)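 Inhibitor titrated from 300 μM to 0.003 μM or 100 μM to 0.001 μM. IC50 values come from curve fits, and selectivity is IC50(β-hexosaminidase)/IC50(human OGA).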

For assay [2], the target named is T1, human β-hexosaminidase [human placenta] (HexA/B).
T1 construct: other: human β-hexosaminidase, human placenta; room temperature, thirty minutes
Described as above. The settings on record: human β-hexosaminidase, human placenta; room temperature, thirty minutes. The method in brief: as §1

Another assay has as its target T2, human OGA (Homo sapiens, UniProt O60502).
T2 construct: made in house
T2 sequence (O60502 1-916): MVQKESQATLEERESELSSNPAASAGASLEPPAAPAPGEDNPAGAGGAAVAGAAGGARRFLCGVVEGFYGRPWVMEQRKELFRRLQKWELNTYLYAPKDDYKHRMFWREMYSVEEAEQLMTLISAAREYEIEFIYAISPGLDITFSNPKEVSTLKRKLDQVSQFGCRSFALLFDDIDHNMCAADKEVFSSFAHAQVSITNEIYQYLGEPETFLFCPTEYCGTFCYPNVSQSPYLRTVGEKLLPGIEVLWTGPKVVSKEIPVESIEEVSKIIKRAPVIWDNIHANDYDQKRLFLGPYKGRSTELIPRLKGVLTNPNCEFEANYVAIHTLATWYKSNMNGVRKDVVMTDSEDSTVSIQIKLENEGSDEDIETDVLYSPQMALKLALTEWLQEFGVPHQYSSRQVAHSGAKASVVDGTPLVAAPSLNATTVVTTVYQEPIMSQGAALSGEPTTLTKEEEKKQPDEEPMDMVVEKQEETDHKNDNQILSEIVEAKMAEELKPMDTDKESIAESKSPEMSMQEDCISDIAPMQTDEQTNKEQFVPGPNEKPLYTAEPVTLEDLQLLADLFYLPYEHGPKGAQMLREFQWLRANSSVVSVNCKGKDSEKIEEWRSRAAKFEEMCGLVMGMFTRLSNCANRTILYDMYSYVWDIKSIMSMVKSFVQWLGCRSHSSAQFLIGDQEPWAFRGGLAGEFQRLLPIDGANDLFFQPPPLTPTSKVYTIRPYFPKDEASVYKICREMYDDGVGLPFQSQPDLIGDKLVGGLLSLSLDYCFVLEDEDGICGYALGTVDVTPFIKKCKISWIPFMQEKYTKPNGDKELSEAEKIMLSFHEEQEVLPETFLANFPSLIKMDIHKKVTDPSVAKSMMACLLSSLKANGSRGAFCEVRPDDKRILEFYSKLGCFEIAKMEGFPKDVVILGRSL
As to the kind of experiment: Determination of IC50 values for inhibition of human OGA. Here is the method: Inhibitors identified from the screen described in Example 1 were evaluated for IC50 using a procedure adapted from Biochem. J. 2009, 420, 221-227. IC50 determination was carried out using a range of inhibitor concentrations from 300 μM to 0.003 μM or 100 μM to 0.001 μM. IC50 values were calculated using XLFit 4.

For the next assay, the target named is T3, human OGA (hOGA) (Homo sapiens, UniProt O60502).
T3 construct: made in house
T3 sequence (O60502 1-916): T2 sequence (O60502 1-916)
As to the kind of experiment: Screening of inhibitor library against human OGA (single point, triplicate). To be noted: 100 μM inhibitor concentration. The procedure:
Expressed and purified human OGA (hOGA) was screened against a library of compounds (compounds stored in 100% DMSO at a concentration of 10 mM) according to a procedure modified from that detailed in Biochem. J. 2009, 420, 221-227 and using the reaction reagents set out in the Table (below). The modification to the published protocol was that an emission wavelength of 450 nm was used rather than […]. Assays were run at singlepoint in triplicate. Inhibitors for further evaluation were selected based on an average observed inhibition greater than 50%.

Molecules are shown by their SMILES.

On to `CCCCCCCCCN1[C@H](CC(=O)NCCCC)[C@H](O)[C@H](O)[C@H]1CO` [Compound A001, N-butyl-2-((2R,3S,4R,5R)-3,4-dihydroxy-5-(hydroxymethyl)-1-nonylpyrrolidin-2-yl)acetamide], for which the “Selectivity: IC50(human β-hexosaminidase)/IC50(Human OGA)” value in assay [1] is on record as above 5. The results for the IC50 (in assay [2]; at human OGA) were above 300 µM and 58 µM, respectively. The same compound showed an inhibition at 100 µM at human OGA (hOGA) of 89.6%.

On to `CCCCNC(=O)C[C@H]1N[C@H](CO)[C@@H](O)[C@H]1O` [Compound A002, N-butyl-2-((2R,3S,4R,5R)-3,4-dihydroxy-5-(hydroxymethyl)pyrrolidin-2-yl)acetamide], for which, in assay [1], the “Selectivity: IC50(human β-hexosaminidase)/IC50(Human OGA)” value is on record as above 4. The IC50 was above 300 µM in assay [2] and 75 µM against human OGA. This compound also showed an inhibition at 100 µM on human OGA (hOGA) of 52.8%.

With `CCCCNC(=O)C[C@@H]1[C@H](O)[C@H](O)[C@@H](CO)N1CCCCCCCCCO` [Compound A003, N-butyl-2-((2R,3S,4R,5R)-3,4-dihydroxy-5-(hydroxymethyl)-1-(9-hydroxynonyl)pyrrolidin-2-yl)acetamide], the “Selectivity: IC50(human β-hexosaminidase)/IC50(Human OGA)” value in assay [1] is given as above 4. Further, the half-maximal inhibitory concentration (IC50) in assay [2] was above 300 µM; against human OGA it was 74.6 µM. The compound also showed an inhibition at 100 µM at human OGA (hOGA) of 82.8%.
